What follows are compounds tested on Hep3B cells (hepatocellular carcinoma cell line) (assay: In vitro MTS cell viability assay (NCI-60 methodology), Hep3B). Settings: Homo sapiens, 48 h, Table 5, MTS, 2 days drug incubation, 50% reduction vs time zero, read-out: Hep3B LC50.
Format: cell-based
Experimental: The cell viability measurement is based on the NCI-60 screening methodology (Nat. Rev. Cancer 6, 813-823, 2006). Briefly, cells are inoculated into 96-well plates at the optimal plating density. After 24 h, one of the two plates for Hep3B cell line is processed to determine a time zero cell viability (Tz) by MTS assay (Promega). Compounds are added over a 2-fold serial dilution to provide a total five drug concentrations plus DMSO control. Plates are incubated for a further 2 days, then measured cell viability by MTS assay [control growth (C) and test growth in the presence of drug at the five concentration levels (Ti)]. The LC50 is calculated from [(Ti−Tz)/Tz]×100=−50, which is the drug concentration resulting in a 50% reduction at the end of the drug treatment as compared to that at the beginning.
The compounds prepared in Tables 1-10 were tested in three in vitro assays, and the results are shown in Tables 1-10 for Hep3B and Table 11 for SW480 and NCI-H460 shown below. Herein, Hep3B refers to hepatocellular carcinoma cell line, SW480 refers to colon adenocarcinoma cell line, and NCI-H460 refers to human lung cancer cell line.
Shown in following Tables 1 to 10 are the structures and in vitro activities of exemplary compounds of formula (I).
`N#C[C@@H]1CCN(c2nc(NC(=O)c3ccc([N+](=O)[O-])s3)c3cnn(-c4ccccc4)c3n2)C1` [Compound 5-5, (R)—N-(6-(3-cyanopyrrolidin-1-yl)-1-phenyl-1H-pyrazolo[3,4-d]pyrimidin-4-yl)-5-nitrothiophene-2-carboxamide] showed an LC50 of 0.5 µM.
Work on `O=C(Nc1nc(N2CCOCC2)nc2c1cnn2-c1ccccc1)c1ccc([N+](=O)[O-])s1` [Compound 5-7, N-(6-morpholino-1-phenyl-1H-pyrazolo[3,4-d]pyrimidin-4-yl)-5-nitrothiophene-2-carboxamide] yielded an LC50 of 1.46 µM.
`C[C@@H]1CN(c2nc(NC(=O)c3ccc([N+](=O)[O-])s3)c3cnn(-c4ccccc4)c3n2)C[C@H](C)O1` [Compound 5-8, N-(6-((2S,6R)-2,6-dimethylmorpholino)-1-phenyl-1H-pyrazolo[3,4-d]pyrimidin-4-yl)-5-nitrothiophene-2-carboxamide] gave an LC50 of 1.71 µM.
`O=C(Nc1nc(NS(=O)(=O)c2ccc(Cl)cc2)nc2c1cnn2-c1ccccc1)c1ccc([N+](=O)[O-])s1` [Compound 5-9, N-(6-((4-chlorophenyl)sulfonamido)-1-phenyl-1H-pyrazolo[3,4-d]pyrimidin-4-yl)-5-nitrothiophene-2-carboxamide] was tested, and the LC50 was > 6 µM.
With `CCOCCOCCOc1nc(NC(=O)c2ccc([N+](=O)[O-])s2)c2cnn(-c3ccccc3)c2n1` [Compound 5-10, N-(6-(2-(2-ethoxyethoxy)ethoxy)-1-phenyl-1H-pyrazolo[3,4-d]pyrimidin-4-yl)-5-nitrothiophene-2-carboxamide] the LC50 was > 5 µM.
`CN(C)CCOc1nc(NC(=O)c2ccc([N+](=O)[O-])s2)c2cnn(-c3ccccc3)c2n1` [Compound 5-11, N-(6-(2-(dimethylamino)ethoxy)-1-phenyl-1H-pyrazolo[3,4-d]pyrimidin-4-yl)-5-nitrothiophene-2-carboxamide] was tested, and the LC50 was 4.13 µM.
For `O=C(Nc1nc(OCCN2CCOCC2)nc2c1cnn2-c1ccccc1)c1ccc([N+](=O)[O-])s1` [Compound 5-12, N-(6-(2-morpholinoethoxy)-1-phenyl-1H-pyrazolo[3,4-d]pyrimidin-4-yl)-5-nitrothiophene-2-carboxamide], the LC50 was > 3 µM.
For `O=C(Nc1nc(Oc2ccccc2)nc2c1cnn2-c1ccccc1)c1ccc([N+](=O)[O-])s1` [Compound 5-13, 5-nitro-N-(6-phenoxy-1-phenyl-1H-pyrazolo[3,4-d]pyrimidin-4-yl)thiophene-2-carboxamide], the LC50 was > 5 µM.
`O=C(Nc1nc(Oc2ccc(F)cc2)nc2c1cnn2-c1ccccc1)c1ccc([N+](=O)[O-])s1` [Compound 5-14, N-(6-(4-fluorophenoxy)-1-phenyl-1H-pyrazolo[3,4-d]pyrimidin-4-yl)-5-nitrothiophene-2-carboxamide] was tested, and the LC50 was > 5 µM.
With `O=C(Nc1nc(Sc2ccccc2)nc2c1cnn2-c1ccccc1)c1ccc([N+](=O)[O-])s1` [Compound 5-15, 5-nitro-N-(1-phenyl-6-(phenylthio)-1H-pyrazolo[3,4-d]pyrimidin-4-yl)thiophene-2-carboxamide] the LC50 was > 5 µM.
`O=C(Nc1nc(Sc2ccc(Cl)cc2)nc2c1cnn2-c1ccccc1)c1ccc([N+](=O)[O-])s1` [Compound 5-16] showed an LC50 of 0.36 µM.
`O=C(Nc1nc(-c2ccco2)nc2c1cnn2-c1ccccc1)c1ccc([N+](=O)[O-])s1` [Compound 5-17, N-(6-(furan-2-yl)-1-phenyl-1H-pyrazolo[3,4-d]pyrimidin-4-yl)-5-nitrothiophene-2-carboxamide] showed an LC50 of 0.4 µM.
`O=C(Nc1nc(-c2ccc(Cl)s2)nc2c1cnn2-c1ccccc1)c1ccc([N+](=O)[O-])s1` [Compound 5-19, N-(6-(5-chlorothiophen-2-yl)-1-phenyl-1H-pyrazolo[3,4-d]pyrimidin-4-yl)-5-nitrothiophene-2-carboxamide] gave an LC50 of 0.17 µM.
`O=C(Nc1nc(-c2ccsc2)nc2c1cnn2-c1ccccc1)c1ccc([N+](=O)[O-])s1` [Compound 5-20, 5-nitro-N-(1-phenyl-6-(thiophen-3-yl)-1H-pyrazolo[3,4-d]pyrimidin-4-yl)thiophene-2-carboxamide] was tested, and the LC50 was 1.11 µM.

Source: US20240150356A1, “Pyrimidine amide compounds and use thereof” (ALPHALA CO., LTD., priority 2019, published 2024)
